ChEMBL document CHEMBL4477222, “Discovery of Novel Thiophene-Based, Thumb Pocket 2 Allosteric Inhibitors of the Hepatitis C NS5B Polymerase with Improved Potency and Physicochemical Profiles” (J Med Chem, 2016)

Assay: Clearance in monkey at 1 mg/kg, iv through bolus administration
Type: ADME, organism-based, Macaca mulatta
Details: rhesus monkey, in vivo

## CC(C)(C)C#Cc1cc(N(CC(=O)N2CCOCC2)C(=O)[C@H]2CC[C@H](C)CC2)c(C(=O)O)s1
  clearance: 9.9 mL/min/kg
